Values quoted from earlier work in patent publication US6723506B2, “Method of identifying PAX8-PPAR gamma-nucleic acid molecules” (Brigham and Women's Hospital, priority 2000, dated 2004).

Tested on: PML-RAR (retinoic acid receptor α) translocation
Conditions: patients harboring the PML-RAR translocation

CC1=C(/C=C/C(C)=C/C=C/C(C)=C/C(=O)O)C(C)(C)CCC1 [all-trans retinoic acid]
remission in APML patients: induces remission in nearly every patient
